Measurements from patent US20200236969A1, “METHODS AND COMPOSITIONS FOR IMPROVING GROWTH AND PERFORMANCE” (priority 2017, published 2020).

Key:
[1] = tested on: day-of-hatch turkeys; test: Second caged trial: 4-strain combination vs FM-B11 and BMD, body weight; type: in vivo, turkey
Text: FIG. 5A and FIG. 5B show average body weights in grams (y-axis) for day-of-hatch turkeys treated with a 4-strain probiotic blend inoculation group, day-of-hatch turkeys treated with an existing commercial probiotic derived from chickens (FM-B11), and day-of-hatch turkeys treated with a low-dose antibiotic (bacitracin methylene disalicylate or BMD), as described in Example 2, compared to day-of-hatch turkeys treated with a saline negative control. FIG. 5A. Turkeys were weighed on day 0 (that is, day-of-hatch), day 3, day 6, and day 13. Error bars depict standard error of means. […] For each treatment group, eight replicate cages were used with 10 birds per cage (n=80 per treatment group).
A second trial was performed to repeat the 4-strain combination inoculation and compare it again with a negative saline control, an existing commercial probiotic derived from chickens (FM-B11), and a low-dose antibiotic (bacitracin methylene disalicylate or BMD) administered continuously at 50 g/ton in the feed. […] Results are shown in FIG. 5 and Table 5 and indicate that there is repeatability in the ability of this 4-strain combination to enhance turkey performance related to weight gain.

[2] = tested on: turkey poults; test: Pen trial of probiotic blends alone and with prebiotics: body weight, uniformity, feed conversion; type: in vivo
Experimental: Pen trial experiments were performed using the 4-strain probiotic blend and 10-strain (3 week) probiotic blend described in Example 2. The effect of each combination was assessed alone and in combination with one of two prebiotics, Lactose 1% in feed or 0.5 lbs SAFMANNAN per ton of feed (Phileo Lesaffre Animal Care, Marcq-En-Baroeul Cedex, France). The prebiotic was administered continuously in feed.
This Experiment started in December 2017 and lasted 15 weeks. Poults were housed in pens through 6 weeks of age then moved to a common area. They remained on experimental feed through 6 weeks; then were all given control feed. Probiotic inoculations were performed at day of hatch and 3 weeks of age.

Row | Molecule | Average body weight Day 3 ([1]; day 3) [g] | Average body weight Day 6 ([1]; day 6) [g] | Average body weight Day 13 ([1]; day 13) [g] | Average body weight Day 0 ([1]; day-of-hatch (baseline)) [g] | Feed conversion ratio 0-2 weeks ([2]; 0-2 weeks of age) | Feed conversion ratio 0-6 weeks ([2]; 0-6 weeks of age) | Total body weight average Day 0 ([2]; Day 0 (baseline), pen trial) [grams] | Total body weight average Week 1 ([2]; Week 1, pen trial, probiotic at day of hatch and 3 weeks, prebiotic continuously in feed) [grams] | Total body weight average Week 2 ([2]; Week 2, pen trial) [grams] | Total body weight average Week 3 ([2]; Week 3, pen trial) [grams] | Coefficient of variation as a measure of bird uniformity Week 3 ([2]; Week 3 of age) | Total body weight average Week 6 ([2]; Week 6, pen trial) [grams] | Coefficient of variation as a measure of bird uniformity Week 6 ([2]; Week 6 of age)
1 | bacitracin methylene disalicylate [BMD Antibiotic] | 76.8 | 125.5 | 314.3 | 60.1 |  |  |  |  |  |  |  |  | 
2 | OC[C@H]1O[C@@H](O[C@H]2[C@H](O)[C@@H](O)C(O)O[C@@H]2CO)[C@H](O)[C@@H](O)[C@H]1O (stereo partly shown) [Lactose 1%, Lactose] |  |  |  |  | 1.40 | 1.71 | 65.0 | 169.9 | 350.7 | 704.0 | 10.304 | 2471.0 | 9.3181
